According to BindingDB's records for patent US11433071 (Incyte Corporation; Incyte Holdings Corporation, 2022):

Columns and labels:
[1] = biological target: T1, Phosphatidylinositol 4,5-bisphosphate 3-kinase catalytic subunit delta isoform (Homo sapiens, UniProt O00329); assay: PI3Kδ Scintillation Proximity Assay
T1 sequence (O00329 whole entry): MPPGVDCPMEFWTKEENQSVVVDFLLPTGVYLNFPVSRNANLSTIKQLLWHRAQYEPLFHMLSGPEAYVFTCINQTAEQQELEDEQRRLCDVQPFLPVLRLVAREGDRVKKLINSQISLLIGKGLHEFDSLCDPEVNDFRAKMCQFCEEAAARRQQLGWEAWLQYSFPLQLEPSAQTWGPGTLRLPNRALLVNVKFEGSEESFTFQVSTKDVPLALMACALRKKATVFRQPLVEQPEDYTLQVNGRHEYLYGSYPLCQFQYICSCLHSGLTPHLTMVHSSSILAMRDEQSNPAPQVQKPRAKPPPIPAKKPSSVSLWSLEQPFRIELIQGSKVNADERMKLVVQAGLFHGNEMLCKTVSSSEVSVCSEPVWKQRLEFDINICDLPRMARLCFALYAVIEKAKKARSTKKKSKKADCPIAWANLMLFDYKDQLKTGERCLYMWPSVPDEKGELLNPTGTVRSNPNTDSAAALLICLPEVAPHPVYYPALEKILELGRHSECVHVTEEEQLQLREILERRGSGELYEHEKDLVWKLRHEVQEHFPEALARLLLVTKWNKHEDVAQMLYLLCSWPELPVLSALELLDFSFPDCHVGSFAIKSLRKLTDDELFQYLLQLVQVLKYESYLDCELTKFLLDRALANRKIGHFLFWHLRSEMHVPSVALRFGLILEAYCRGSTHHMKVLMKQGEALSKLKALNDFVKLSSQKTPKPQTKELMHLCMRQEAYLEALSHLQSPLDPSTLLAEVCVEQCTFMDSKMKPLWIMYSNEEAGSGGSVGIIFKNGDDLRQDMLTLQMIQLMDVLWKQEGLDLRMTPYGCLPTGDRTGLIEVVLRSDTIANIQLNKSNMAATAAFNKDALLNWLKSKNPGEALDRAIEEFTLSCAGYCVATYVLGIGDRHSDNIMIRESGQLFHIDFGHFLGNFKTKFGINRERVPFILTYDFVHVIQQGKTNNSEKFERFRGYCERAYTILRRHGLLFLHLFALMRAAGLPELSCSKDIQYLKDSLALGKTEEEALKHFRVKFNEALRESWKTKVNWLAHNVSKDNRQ
Experimental: The kinase reaction was conducted in polystyrene 384-well matrix white plate from Thermo Fisher Scientific in a final volume of 25 μL. Inhibitors were first diluted serially in DMSO and added to the plate wells before the addition of other reaction components. The final concentration of DMSO in the assay was 0.5%. The PI3K assays were carried out at room temperature in 20 mM MOPS, pH 6.7, 10 mM MgCl2, 5 mM DTT and CHAPS 0.03%. Reactions were initiated by the addition of ATP, the final reaction mixture consisted of 20 μM PIP2, 20 μM ATP, 0.2 μCi [γ-33P] ATP, 4 nM PI3Kδ. […] 25 mM EDTA, 400 µM ATP. The final concentration of SPA beads was 1.0 mg/mL. After the plate sealing, plates were shaken overnight at room temperature and centrifuged at 1800 rpm for 10 minutes, the radioactivity of the product was determined by scintillation counting on Topcount (Perkin-Elmer).

[2] = biological target: T1, Phosphatidylinositol 4,5-bisphosphate 3-kinase catalytic subunit delta isoform; assay: PI3K Enzyme Assay
Experimental: Materials: Lipid kinase substrate, phosphoinositol-4,5-bisphosphate (PIP2), are purchased from Echelon Biosciences (Salt Lake City, Utah). PI3K isoforms α, β, δ and γ are purchased from Millipore (Bedford, Mass.). ATP, MgCl2, DTT, EDTA, MOPS and CHAPS are purchased from Sigma-Aldrich (St. Louis, Mo.).The kinase reaction are conducted in clear-bottom 96-well plate from Thermo Fisher Scientific in a final volume of 24 μL. Inhibitors are first diluted serially in DMSO and added to the plate wells before the addition of other reaction components. The final concentration of DMSO in the assay is 0.5%. The PI3K assays are carried out at room temperature in 20 mM MOPS, pH 6.7, 10 mM MgCl2, 5 mM DTT and CHAPS 0.03%. The reaction mixture is prepared containing 50 μM PIP2, kinase and varying concentration of inhibitors. Reactions are initiated by the addition of ATP containing 2.2 μCi [γ-33P]ATP to a final concentration of 1000 μM. The final concentration of PI3K isoforms α, β, δ and γ in the assay were 1.3, 9.4, 2.9 and 10.8 nM, respectively. Reactions are incubated for 180 minutes and terminated by the addition of 100 μL of 1 M potassium phosphate pH 8.0, 30 mM EDTA quench buffer. […] After the plate sealing, the radioactivity of the product is determined by scintillation counting on Topcount (Perkin-Elmer). […]

IC50 [1] [nM] | IC50 [2] [nM] | Compound
< 10 |  | CCOc1c(C(C)n2nc(C)c3c(N)ncnc32)cc(Cl)c(C#N)c1C1CN(c2cncc(C#N)c2)C1 (stereo unspecified) [US11433071, Example 330]
< 10 |  | CCOc1c(C(C)n2nc(C)c3c(N)ncnc32)cc(Cl)c(C#N)c1C1CN(c2cncc(C(=O)N(C)C)c2)C1 (stereo unspecified) [US11433071, Example 331]
< 10 |  | CCOc1c(C(C)n2nc(C)c3c(N)ncnc32)cc(Cl)c(C#N)c1C1CN(c2ccnc(C(=O)N(C)C)c2)C1 (stereo unspecified) [US11433071, Example 334]
< 10 |  | CCOc1c(C(C)n2nc(C)c3c(N)ncnc32)cc(C)c(C#N)c1C1CN(c2cncc(S(C)(=O)=O)c2)C1 (stereo unspecified) [US11433071, Example 335]
< 10 |  | CCOc1c(C(C)n2nc(C)c3c(N)ncnc32)cc(Cl)c(C#N)c1C1CN(c2ccc(-c3nnn(C)n3)nc2)C1 (stereo unspecified) [US11433071, Example 336]
< 10 |  | CCOc1c(C(C)n2nc(C)c3c(N)ncnc32)cc(Cl)c(C#N)c1C1CN(c2ccc(-c3cnn(C)n3)nc2)C1 (stereo unspecified) [US11433071, Example 337]
< 10 |  | CCOc1c(C(C)n2nc(C)c3c(N)ncnc32)cc(Cl)c(C#N)c1C1CN(N2CC(COC)C2)C1 (stereo unspecified) [US11433071, Example 341]
< 10 |  | CCOc1c(C(C)n2nc(C)c3c(N)ncnc32)cc(Cl)c(C#N)c1C1CN(N2CC(C#N)C2)C1 (stereo unspecified) [US11433071, Example 342]
< 10 |  | CCOc1c(C(C)n2nc(C)c3c(N)ncnc32)cc(C)c(C#N)c1C1CN(c2cnn(C)c2)C1 (stereo unspecified) [US11433071, Example 343]
 | > 500 | COc1c([C@@H](C)n2cc(C)c(=O)c3c(N)ncnc32)cc(Cl)c(C)c1-c1ccc(C[C@H](C)O)nc1 [US11433071, Example 361]
< 10 |  | COc1c([C@H](C)n2cc(C)c(=O)c3c(N)ncnc32)cc(Cl)c(C)c1-c1ccc(C[C@@H](C)O)nc1 [US11433071, Example 362]
